Test results reported in paper PMC10192418, “High-affinity peptides developed against calprotectin and their application as synthetic ligands in diagnostic assays” (Nature Communications, 2023).
Like-named read-outs stand apart in the source and are kept apart here. Numbered stars: 1 amine (or outer) side, 2 acyl side, 3 side chain; on linkers, the order of the positions; unused ones are H or OH. Bridge positions count the residues as written; N and C are the ends. Peptide text beside a SMILES is read from it. * marks the point of attachment. X1 = O=C(O)c1cc(C(=O)*)ccc1-c1c2ccc(=O)cc-2oc2cc(O)ccc12; CH2COCH2 = O=C(C[*:1])C[*:2]

Legend:
[1] = Methionine oxidation of peptide upon storage in solution; type: physicochemical
[2] = target: T1, calprotectin tetramer (recombinant B-RCAL, His6-linker-S100A9-linker-S100A8) (Homo sapiens, UniProt P05109); experiment: Fluorescence polarization (FP) binding to recombinant calprotectin B-RCAL tetramer in presence of CaCl2
T1 construct: we used the recombinant protein without removing the His-tag or cleaving the 8-amino acid linker between the two proteins; co-authors' company
T1 sequence (P05109 with tags, fused parts or gaps): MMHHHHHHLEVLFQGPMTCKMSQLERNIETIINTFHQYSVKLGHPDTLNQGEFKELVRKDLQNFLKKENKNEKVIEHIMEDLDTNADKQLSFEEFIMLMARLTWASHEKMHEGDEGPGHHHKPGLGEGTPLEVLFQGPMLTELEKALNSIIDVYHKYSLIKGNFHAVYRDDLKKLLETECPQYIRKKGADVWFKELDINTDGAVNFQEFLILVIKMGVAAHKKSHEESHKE
Description: Calprotectin was serially diluted in 20 mM HEPES, 100 mM NaCl, 2 mM CaCl2, pH 7.5, and 1 mM DTT with 0.01% (v/v) Tween-20. Volumes of 16 μL of protein were added to 4 μL of fluorescent peptide (20 nM final concentration) in black 384-well microtiter plates. Fluorescence anisotropy was measured on a microwell plate reader (Infinite M200Pro, Tecan) with filters for excitation at 485 nm and emission at 535 nm. The dissociation constant (Kd) was calculated using a following Eq. (1) using Prism 5 software (GraphPad):1 A=Af+Ab−Af×LT+KD+PT−LT+KD+PT^2−4LTPT/2LT where A is anisotropy, Af and Ab are the anisotropy values for free and bound ligands, respectively. [L]T is the concentration of the total fluorescent ligand and [P]T the concentration of the protein.

[3] = target: T2, calprotectin tetramer (recombinant B-RCAL) (Homo sapiens, UniProt P05109); experiment: biochemical
T2 sequence (P05109 with tags, fused parts or gaps): T1 sequence (P05109 with tags, fused parts or gaps)
Description: SPR measurements were performed using a Biacore^TM 8 K instrument (GE Healthcare) using the Biacore^TM 8 K Control software. Recombinant calprotectin (B-RCAL) was diluted with 10 mM acetate buffer (pH 5.0) to reach a concentration of 5 μg/mL and immobilized on a CM5 series S chip using the standard amine coupling method in running buffer (10 mM HEPES pH 7.4, 150 mM NaCl, 2 mM CaCl2, and 0.005% v/v Tween-20) at 25 °C and the following procedure. At a flow of 10 μL/min, the following solutions were injected: 420 s 0.4 M EDC, 0.1 M NHS; 100 to 200 s protein; 500 s 1 M ethanolamine-HCl pH 8.5. Typical immobilization levels were 3000 resonance units (RUs). A reference cell was treated in the same way but without the injection of protein. A single concentration for each peptide (500 nM) was injected in a running buffer containing 0.5% (v/v) DMSO to measure the binding level. For the measurement of binding kinetics and dissociation constants, five serial dilutions (threefold) of peptides were prepared in running buffer containing 0.5% (v/v) DMSO and analyzed in single cycle kinetics mode with the contact and dissociation times of 90 s and 120 s, respectively. Data were analyzed using Biacore^TM 8 K Evaluation software.

[4] = target: T3, native calprotectin (tetramer, + CaCl2) (Homo sapiens, UniProt P05109+P06702); experiment: FP binding to native calprotectin derived from granulocytes
T3 construct: Native calprotectin is derived from granulocytes; tissue gift from Thomas Vogl, Institute of Immunology, University of Muenster; host or cells: granulocytes
T3 sequence (P05109 1-93): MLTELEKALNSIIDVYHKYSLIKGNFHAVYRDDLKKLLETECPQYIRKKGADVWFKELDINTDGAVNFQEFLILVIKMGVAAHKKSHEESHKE
T3 sequence (P06702 2-114 limits assumed): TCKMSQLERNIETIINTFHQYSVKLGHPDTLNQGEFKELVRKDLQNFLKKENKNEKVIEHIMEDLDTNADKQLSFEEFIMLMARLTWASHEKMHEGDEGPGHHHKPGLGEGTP
Description: Fluorescence anisotropy was measured on a microwell plate reader (Infinite M200Pro, Tecan) with filters for excitation at 485 nm and emission at 535 nm. The dissociation constant (Kd) was calculated using a following Eq. […] [L]T is the concentration of the total fluorescent ligand and [P]T the concentration of the protein. Native calprotectin is derived from granulocytes (kind gift from Thomas Vogl, Institute of Immunology, University of Muenster) and was purified as described in ref. [34]. The size and concentration was analyzed and compared to B-RCAL by standard SDS-PAGE.

| Compound | oxidation upon storage in solution [1] | Kd ([2]; FP, 20 nM peptide, 2 mM CaCl2, Rep 1) [nM] | FP increase upon binding to calprotectin ([2]; FP, 2 mM CaCl2) | Kd [3] [nM] | Kd [4] [nM] | Kd [2] [nM] |
| --- | --- | --- | --- | --- | --- | --- |
| CSCC[C@H](NC(=O)[C@@H]1CCCN1C(=O)[C@H](Cc1ccccc1)NC(=O)[C@H](C)NC(=O)[C@@H](NC(=O)[C@@H]1CSCC(=O)CSC[C@H](NC(=O)[C@H](CCCNC(=N)N)NC(=O)c2ccc(-c3c4ccc(=O)cc-4oc4cc(O)ccc34)c(C(=O)O)c2)C(=O)N2CCC[C@H]2C(=O)N[C@@H](CCC(=O)O)C(=O)N1)C(C)C)C(=O)N[C@@H](Cc1ccccc1)C(=O)N[C@@H](CCC(N)=O)C(=O)N[C@H]1CSCC(=O)CSC[C@@H](C(=O)NCC(N)=O)NC(=O)[C@H](Cc2ccc(O)cc2)NC(=O)[C@H](Cc2c[nH]c3ccccc23)NC(=O)[C@H](Cc2c[nH]cn2)NC1=O [Peptide 3] (X1-RCPECVAFPMFQCHWYCG-NH2; linker 2-5, 13-17 via CH2COCH2) | a small quantity was oxidized | 20 | around 50% |  |  |  |
| CSCC[C@H](NC(=O)[C@@H]1CCCN1C(=O)[C@H](Cc1ccccc1)NC(=O)[C@H](C)NC(=O)[C@@H](NC(=O)[C@@H]1CSCC(=O)CSC[C@H](NC(=O)[C@H](CCCNC(=N)N)NC(=O)c2ccc3c(c2)C(=O)OC32c3ccc(O)cc3Oc3cc(O)ccc32)C(=O)N2CCC[C@H]2C(=O)N[C@@H](CCC(=O)O)C(=O)N1)C(C)C)C(=O)N[C@@H](Cc1ccccc1)C(=O)N[C@@H](CCC(N)=O)C(=O)N[C@H]1CSCC(=O)CSC[C@@H](C(=O)NCC(N)=O)NC(=O)[C@H](Cc2ccc(O)cc2)NC(=O)[C@H](Cc2c[nH]c3ccccc23)NC(=O)[C@H](Cc2c[nH]cn2)NC1=O (single isomer, unassigned) [Peptide 3 Isomer 1] |  |  |  | 51 | 26 ± 2 | 24 ± 10 |
